The subject of one series is HCV type 1a. Nature of the series: inhibitory activity on HCV type 1a. The following applies: statement in words, no method described.
A further series has as its system HCV type 1b. In words: inhibitory activity on HCV type 1b. To be noted: statement in words, no method described.
The nature of series [1]: blood concentration when administered to an animal. The format is in vivo. To be noted: when administered as a pharmaceutical agent to an animal; statement in words.
A further series concerns the target T1, HCV polymerase (Hepatitis C virus genotype 1b, UniProt P26663).
T1 construct: a region encoding NS5B (591 amino acids; J Virol 1991 Mar, 65(3), 1105-13) was amplified by PCR; 6 His (N); made in house; host or cells: Escherichia coli
In words: biochemical. To be noted: read-out: HCV polymerase inhibitory activity IC50. The source says:
The evaluation of the HCV polymerase inhibitory activity of the compound of the present invention is explained in the following. This polymerase is an enzyme coded for by the non-structural protein region called NS5B on the RNA gene of HCV (EMBO J., 15:12-22, 1996).
i) Preparation of enzyme (HCV polymerase)
Using, as a template, a cDNA clone corresponding to the full length RNA gene of HCV BK strain obtained from the blood of a patient with hepatitis C, a region encoding NS5B (591 amino acids; J Virol 1991 Mar, 65(3), 1105-13) was amplified by PCR. The objective gene was prepared by adding a 6 His tag {base pair encoding 6 continuous histidine (His)} to the 5′ end thereof and transformed to Escherichia coli. The Escherichia coli capable of producing the objective protein was cultured. The obtained cells were suspended in a buffer solution containing a surfactant and crushed in a microfluidizer.
ii) Synthesis of substrate RNA
Using a synthetic primer designed based on the sequence of HCV genomic 3′ untranslated region, a DNA fragment (148 bp) containing polyU and 3′X sequence was entirely synthesized and cloned into plasmid pBluescript SK II(+) (Stratagene). The cDNA encoding full length NSSB, which was prepared in i) above, was digested with restriction enzyme KpnI to give a cDNA fragment containing the nucleotide sequence of from the restriction enzyme cleavage site to the termination codon. This cDNA fragment was inserted into the upstream of 3′ untranslated region of the DNA in pBluescript SK II(+) and ligated. The about 450 bp inserted DNA sequence was used as a template in the preparation of substrate RNA.
RNA was synthesized (37° C., 3 hr) by run-off method using this purified DNA as a template, a promoter of pBluescript SK II(+), MEGAscript RNA synthesis kit (Ambion) and T7 RNA polymerase. DNaseI was added and the mixture was incubated for 1 hr. The template DNA was removed by decomposition to give a crude RNA product.
This RNA was applied to formaldehyde denaturation agarose gel electrophoresis to confirm the quality thereof and preserved at −80° C.
iii) Assay of enzyme (HCV polymerase) inhibitory activity
A test substance (compound of the present invention) and a reaction mixture (30 μl) having the following composition were reacted at 25° C. for 90 min.
10% Trichloroacetic acid at 4° C. and 1% sodium pyrophosphate solution (150 μl) were added to this reaction mixture to stop the reaction. The reaction mixture was left standing in ice for 15 min to insolubilize RNA. This RNA was trapped on a glass filter (Whatman GF/C and the like) upon filtration by suction. This filter was washed with a solution containing 1% trichloroacetic acid and 0.1% sodium pyrophosphate, washed with 90% ethanol and is dried. A liquid scintillation cocktail (Packard) was added and the radioactivity of RNA synthesized by the enzyme reaction was measured on a liquid scintillation counter.
The HCV polymerase inhibitory activity (IC50) of the compound of the present invention was calculated from the values of radioactivity of the enzyme reaction with and without the test substance.
Reaction mixture : HCV polymerase (5 μg/ml) obtained in i), substrate RNA (10 μg/ml) obtained in ii), ATP (50 μM), GTP (50 μM), CTP (50 μM), UTP (2 μM), [5,6-^3H]UTP (46 Ci/mmol (Amersham), […]) 20 mM Tris-HCl (pH 7.5), EDTA (1 mM), MgCl2 (5 mM), NaCl (50 mM), DTT (1 mM), BSA (0.01%)

Counter-ions that a name gives are not always drawn.

T1 sequence (P26663 2420-3010): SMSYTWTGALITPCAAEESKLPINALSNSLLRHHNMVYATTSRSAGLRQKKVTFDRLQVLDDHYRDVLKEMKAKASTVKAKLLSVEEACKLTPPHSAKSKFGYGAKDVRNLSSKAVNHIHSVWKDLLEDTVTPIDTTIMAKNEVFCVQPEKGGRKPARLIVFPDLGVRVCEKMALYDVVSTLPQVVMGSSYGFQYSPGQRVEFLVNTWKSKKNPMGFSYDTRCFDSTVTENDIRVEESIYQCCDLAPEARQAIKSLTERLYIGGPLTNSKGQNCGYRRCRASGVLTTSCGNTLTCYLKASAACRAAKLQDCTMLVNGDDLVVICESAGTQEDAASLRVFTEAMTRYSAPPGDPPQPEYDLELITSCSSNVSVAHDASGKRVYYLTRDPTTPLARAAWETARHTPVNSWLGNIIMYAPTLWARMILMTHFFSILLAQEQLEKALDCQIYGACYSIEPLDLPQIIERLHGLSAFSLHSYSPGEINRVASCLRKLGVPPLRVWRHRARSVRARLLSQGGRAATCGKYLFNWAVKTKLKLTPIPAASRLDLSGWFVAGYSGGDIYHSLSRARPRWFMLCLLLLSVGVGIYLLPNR

As to `Cl.O=C(O)c1ccc2c(c1)nc(-c1ccc(OCc3cc(N4CCCC4=O)ccc3-c3ccc(Cl)cc3)cc1F)n2C1CCCCC1` [2-{4-[2-(4-chlorophenyl)-5-(2-oxopyrrolidin-1-yl)benzyloxy]-2-fluorophenyl}-1-cyclohexylbenzimidazole-5-carboxylic acid hydrochloride], the “inhibitory activity on HCV type 1a” value in the series with HCV type 1a is recorded as “high inhibitory activity”. Besides, the “inhibitory activity on HCV type 1b” value with HCV type 1b is on record as “high inhibitory activity”. In series [1], the blood concentration result is on record as “high blood concentration”.

As to `COc1cc(CCOc2ccc(-c3nc4cc(C(=O)O)ccc4n3C3CCCCC3)cc2)cc(OC)c1OC` [Example 101, 1-cyclohexyl-2-{4-[2-(3,4,5-trimethoxyphenyl)ethoxy]phenyl}-benzimidazole-5-carboxylic acid], the IC50 at HCV polymerase turned out to be 140 nM.

Consider `O=C(O)c1ccc2c(c1)nc(-c1ccc(OCCN3c4ccccc4CCc4ccccc43)cc1)n2C1CCCCC1` [Example 116, 1-cyclohexyl-2-{4-[2-(10,11-dihydro-5H-dibenzo[b,f]azepin-5-yl)ethoxy]phenyl}benzimidazole-5-carboxylic acid], for which the IC50 at HCV polymerase was found to be 370 nM.

On to `O=C(O)c1ccc2c(c1)nc(-c1ccc(Oc3cccc(Oc4ccccc4)c3)cc1)n2C1CCCCC1` [Example 129, 1-cyclohexyl-2-[4-(3-phenoxyphenoxy)phenyl]benzimidazole-5-carboxylic acid], for which the IC50 at HCV polymerase was found to be 120 nM.

As for `O=C(O)c1ccc2c(c1)nc(-c1ccc(Oc3cc(-c4cccc(Cl)c4)ncn3)cc1)n2C1CCCCC1` [Example 240, 2-{4-[4-(3-chlorophenyl)-6-pyrimidinyloxy]phenyl}-1-cyclohexylbenzimidazole-5-carboxylic acid], the half-inhibitory concentration (IC50) at HCV polymerase was determined as 55 nM.

Take `COC(=O)c1ccc2c(c1)nc(-c1ccc(OCc3cc(C(=O)O)ccc3-c3ccc(Cl)cc3)cc1F)n2C1CCCCC1` [Example 281, methyl 2-{4-[5-carboxy-2-(4-chlorophenyl)benzyloxy]-2-fluorophenyl}-1-cyclohexylbenzimidazole-5-carboxylate hydrochloride]: the IC50 on HCV polymerase was 52 nM.

For `O=C(O)c1ccc2c(c1)nc(-c1ccc(OC(c3cccnc3)c3cccnc3)cc1F)n2C1CCCCC1` [Example 300, 2-{4-[bis(3-pyridyl)methoxy]-2-fluorophenyl}-1-cyclohexylbenzimidazole-5-carboxylic acid], the IC50 on HCV polymerase was determined as 45 nM.

For `CN(C)C(=O)c1ccc(-c2ccc(Cl)cc2)c(COc2ccc(-c3nc4cc(-c5nnn[nH]5)ccc4n3C3CCCCC3)c(F)c2)c1` [Example 434, 2-{4-[2-(4-chlorophenyl)-5-(dimethylcarbamoyl)benzyloxy]-2-fluorophenyl}-1-cyclohexyl-5-tetrazol-5-ylbenzimidazole], the concentration for half-maximal inhibition (IC50) at HCV polymerase is 11 nM.
